Source: ChEMBL document CHEMBL3102716, “High-throughput virtual screening identifies novel N'-(1-phenylethylidene)-benzohydrazides as potent, specific, and reversible LSD1 inhibitors” (J Med Chem, 2013)
Activity calls are given as the source filed them. The calls are words filed in the database; no cut-off is given here.

Assays:
[1] = target: T1, Lysine-specific histone demethylase 1A (Homo sapiens, UniProt O60341)
Description: Inhibition of LSD1 (unknown origin) using dimethyl K4 peptide as substrate assessed as resorufin level by spectrophotometric analysis

T47D = test: cells; conditions: Homo sapiens, 96 h
[2] = target: T1, Lysine-specific histone demethylase 1A; test: Inhibition of GST-tagged human recombinant LSD1 using dimethylated H3K4 peptide as substrate by mass spectrometric analysis
[3] = target: T2, Amine oxidase [flavin-containing] B (Homo sapiens, UniProt P27338)
T2 sequence (P27338 whole entry): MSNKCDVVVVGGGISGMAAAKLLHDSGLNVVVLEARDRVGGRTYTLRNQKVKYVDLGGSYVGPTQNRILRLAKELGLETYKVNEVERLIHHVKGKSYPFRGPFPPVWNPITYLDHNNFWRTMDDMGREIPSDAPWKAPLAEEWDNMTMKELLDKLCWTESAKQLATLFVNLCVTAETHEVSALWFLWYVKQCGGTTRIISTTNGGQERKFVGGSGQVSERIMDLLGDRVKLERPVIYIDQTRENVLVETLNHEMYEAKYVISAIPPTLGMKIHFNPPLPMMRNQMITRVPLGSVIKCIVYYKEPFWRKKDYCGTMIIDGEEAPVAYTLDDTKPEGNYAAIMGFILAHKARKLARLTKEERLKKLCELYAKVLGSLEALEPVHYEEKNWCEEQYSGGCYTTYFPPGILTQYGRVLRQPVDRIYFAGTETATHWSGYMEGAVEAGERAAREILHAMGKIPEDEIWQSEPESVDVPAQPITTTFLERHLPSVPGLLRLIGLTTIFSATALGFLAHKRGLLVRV
Description: Inhibition of MAO-B (unknown origin)

[4] = target: T1, Lysine-specific histone demethylase 1A; test: Reversible inhibition of full-length 6His-tagged LSD1 (unknown origin) at 10XIC50 preincubated for 1 hr followed by 100 fold dilution relative to control
Cytochrome P450 3A4 = Cytochrome P450 3A4 (Homo sapiens, UniProt P08684); test: Inhibition of CYP3A4 (unknown origin); format: ADME
Sequence of Cytochrome P450 3A4 (P08684 whole entry): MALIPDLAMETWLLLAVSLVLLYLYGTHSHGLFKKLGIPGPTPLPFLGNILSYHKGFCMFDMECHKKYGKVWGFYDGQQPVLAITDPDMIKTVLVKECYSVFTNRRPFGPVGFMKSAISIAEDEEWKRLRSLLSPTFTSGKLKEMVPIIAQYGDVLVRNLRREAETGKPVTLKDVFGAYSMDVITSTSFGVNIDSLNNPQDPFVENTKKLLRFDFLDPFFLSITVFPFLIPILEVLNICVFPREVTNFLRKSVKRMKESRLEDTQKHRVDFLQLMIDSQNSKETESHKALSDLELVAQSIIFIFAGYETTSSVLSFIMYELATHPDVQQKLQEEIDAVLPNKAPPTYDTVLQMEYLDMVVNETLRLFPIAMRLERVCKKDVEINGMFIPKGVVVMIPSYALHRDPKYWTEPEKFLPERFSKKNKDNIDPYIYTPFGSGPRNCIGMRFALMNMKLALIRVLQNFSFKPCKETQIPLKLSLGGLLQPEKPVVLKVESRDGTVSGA

[5] = target: T1, Lysine-specific histone demethylase 1A; test: Non-competitive inhibition of recombinant full-length His6-tagged LSD1 (unknown origin) using dimethylated K4N-terminal H3 peptide as substrate at 1 nM by Michaelis-Menten plot analysis
Cytochrome P450 2C9 = Cytochrome P450 2C9 (Homo sapiens, UniProt P11712); test: Inhibition of CYP2C9 (unknown origin); format: ADME
Sequence of Cytochrome P450 2C9 (P11712 whole entry): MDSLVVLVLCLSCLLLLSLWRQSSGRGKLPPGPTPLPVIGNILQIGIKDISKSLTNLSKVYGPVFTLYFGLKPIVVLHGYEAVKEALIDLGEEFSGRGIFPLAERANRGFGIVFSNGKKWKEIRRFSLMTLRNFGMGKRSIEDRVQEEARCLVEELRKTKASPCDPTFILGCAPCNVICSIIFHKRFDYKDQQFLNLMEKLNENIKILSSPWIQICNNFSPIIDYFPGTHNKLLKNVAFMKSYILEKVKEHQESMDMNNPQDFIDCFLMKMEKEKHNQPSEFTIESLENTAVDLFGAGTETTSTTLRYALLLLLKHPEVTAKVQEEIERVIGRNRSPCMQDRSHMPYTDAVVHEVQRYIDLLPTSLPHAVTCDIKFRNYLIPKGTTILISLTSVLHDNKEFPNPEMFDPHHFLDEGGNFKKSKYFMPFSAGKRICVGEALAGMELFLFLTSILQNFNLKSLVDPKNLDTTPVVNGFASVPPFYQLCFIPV

[6] = Inhibition of D-lactate dehydrogenase (unknown origin); design: species or system Homo sapiens
Cytochrome P450 1A2 = target: T3, Cytochrome P450 1A2 (Homo sapiens, UniProt P05177); test: Inhibition of CYP1A2 (unknown origin); format: ADME
T3 sequence (P05177 whole entry): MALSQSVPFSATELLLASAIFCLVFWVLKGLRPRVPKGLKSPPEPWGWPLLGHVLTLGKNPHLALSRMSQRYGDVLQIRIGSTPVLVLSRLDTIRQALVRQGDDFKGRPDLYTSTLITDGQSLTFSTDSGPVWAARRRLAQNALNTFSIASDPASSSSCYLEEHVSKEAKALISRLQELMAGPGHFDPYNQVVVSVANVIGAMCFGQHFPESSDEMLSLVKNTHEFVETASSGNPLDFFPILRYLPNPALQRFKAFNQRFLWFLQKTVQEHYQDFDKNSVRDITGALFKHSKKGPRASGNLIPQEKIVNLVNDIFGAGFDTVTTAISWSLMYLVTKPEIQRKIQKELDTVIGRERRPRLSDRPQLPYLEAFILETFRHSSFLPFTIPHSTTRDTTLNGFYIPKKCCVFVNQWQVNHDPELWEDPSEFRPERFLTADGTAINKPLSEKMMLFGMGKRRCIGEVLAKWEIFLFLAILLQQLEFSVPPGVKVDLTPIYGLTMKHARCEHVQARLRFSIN

[7] = target: T1, Lysine-specific histone demethylase 1A; test: Non-competitive inhibition of recombinant full-length His6-tagged LSD1 (unknown origin) using dimethylated K4N-terminal H3 peptide as substrate at 3 nM by Michaelis-Menten plot analysis
[8] = target: Voltage-gated inwardly rectifying potassium channel KCNH2 (Homo sapiens, UniProt Q12809); test: Inhibition of human ERG
Sequence of Voltage-gated inwardly rectifying potassium channel KCNH2 (Q12809 whole entry): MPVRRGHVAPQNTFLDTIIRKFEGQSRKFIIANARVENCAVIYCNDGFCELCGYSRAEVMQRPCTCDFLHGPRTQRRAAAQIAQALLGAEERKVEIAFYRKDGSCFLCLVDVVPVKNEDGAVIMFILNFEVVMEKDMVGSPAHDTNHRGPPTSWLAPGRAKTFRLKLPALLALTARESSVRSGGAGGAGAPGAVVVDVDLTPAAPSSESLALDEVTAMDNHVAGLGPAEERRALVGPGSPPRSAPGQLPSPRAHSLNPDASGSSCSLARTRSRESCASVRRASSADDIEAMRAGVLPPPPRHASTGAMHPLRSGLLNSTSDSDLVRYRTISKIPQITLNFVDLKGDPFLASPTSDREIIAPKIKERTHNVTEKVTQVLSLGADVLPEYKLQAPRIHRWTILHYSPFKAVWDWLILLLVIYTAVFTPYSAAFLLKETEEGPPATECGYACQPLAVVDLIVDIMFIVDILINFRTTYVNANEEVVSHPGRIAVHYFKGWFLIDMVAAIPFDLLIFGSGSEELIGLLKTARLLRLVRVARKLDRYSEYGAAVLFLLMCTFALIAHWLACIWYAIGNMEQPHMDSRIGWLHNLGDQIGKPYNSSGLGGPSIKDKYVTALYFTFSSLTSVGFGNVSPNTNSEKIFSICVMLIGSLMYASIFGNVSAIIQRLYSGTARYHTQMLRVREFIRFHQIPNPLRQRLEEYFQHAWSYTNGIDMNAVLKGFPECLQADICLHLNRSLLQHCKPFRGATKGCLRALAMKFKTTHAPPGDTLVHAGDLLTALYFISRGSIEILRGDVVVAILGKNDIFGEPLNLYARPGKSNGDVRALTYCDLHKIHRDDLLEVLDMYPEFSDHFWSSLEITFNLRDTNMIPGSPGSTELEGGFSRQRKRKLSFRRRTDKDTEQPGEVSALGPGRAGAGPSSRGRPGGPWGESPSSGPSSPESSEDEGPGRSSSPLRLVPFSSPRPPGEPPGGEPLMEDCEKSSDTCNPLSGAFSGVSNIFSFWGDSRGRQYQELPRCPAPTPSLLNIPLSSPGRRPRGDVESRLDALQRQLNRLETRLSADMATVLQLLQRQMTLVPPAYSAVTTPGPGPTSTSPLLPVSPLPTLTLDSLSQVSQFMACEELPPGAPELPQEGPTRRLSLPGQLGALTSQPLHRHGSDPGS

[9] = Inhibition of glucose oxidase (unknown origin)
Cytochrome P450 2D6 = Cytochrome P450 2D6 (Homo sapiens, UniProt P10635); test: Inhibition of CYP2D6 (unknown origin); format: ADME
Sequence of Cytochrome P450 2D6 (P10635 whole entry): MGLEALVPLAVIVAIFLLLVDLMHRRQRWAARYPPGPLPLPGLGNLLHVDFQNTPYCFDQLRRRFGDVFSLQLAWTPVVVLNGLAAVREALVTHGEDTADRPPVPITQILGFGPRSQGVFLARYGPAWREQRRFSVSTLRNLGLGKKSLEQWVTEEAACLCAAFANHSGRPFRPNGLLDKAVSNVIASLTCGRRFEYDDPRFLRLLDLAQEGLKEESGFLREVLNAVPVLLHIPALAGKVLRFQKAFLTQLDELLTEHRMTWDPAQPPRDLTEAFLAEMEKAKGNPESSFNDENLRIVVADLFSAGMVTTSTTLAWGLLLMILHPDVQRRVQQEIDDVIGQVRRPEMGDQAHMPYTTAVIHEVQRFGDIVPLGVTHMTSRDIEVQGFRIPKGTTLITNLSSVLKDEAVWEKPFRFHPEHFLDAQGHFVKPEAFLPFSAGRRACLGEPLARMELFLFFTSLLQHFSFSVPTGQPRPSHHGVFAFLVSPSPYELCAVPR

[10] = target: T4, Amine oxidase [flavin-containing] A (Homo sapiens, UniProt P21397)
T4 sequence (P21397 whole entry): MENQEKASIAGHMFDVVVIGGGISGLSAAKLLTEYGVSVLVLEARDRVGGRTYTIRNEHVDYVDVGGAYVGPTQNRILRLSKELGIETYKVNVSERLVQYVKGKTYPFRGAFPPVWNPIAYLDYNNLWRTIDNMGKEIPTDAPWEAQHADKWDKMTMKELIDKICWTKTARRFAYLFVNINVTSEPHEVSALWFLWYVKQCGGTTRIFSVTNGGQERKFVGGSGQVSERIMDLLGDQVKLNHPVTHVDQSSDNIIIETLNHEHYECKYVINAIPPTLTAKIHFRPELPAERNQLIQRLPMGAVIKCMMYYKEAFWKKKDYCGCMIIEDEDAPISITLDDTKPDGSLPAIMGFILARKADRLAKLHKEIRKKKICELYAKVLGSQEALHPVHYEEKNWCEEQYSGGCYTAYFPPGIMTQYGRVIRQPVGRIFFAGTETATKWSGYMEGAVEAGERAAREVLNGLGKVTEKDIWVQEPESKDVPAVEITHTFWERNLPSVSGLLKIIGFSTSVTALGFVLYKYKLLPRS
Description: Inhibition of MAO-A (unknown origin)

[11] = target: T1, Lysine-specific histone demethylase 1A; test: Non-competitive inhibition of recombinant full-length His6-tagged LSD1 (unknown origin) using dimethylated K4N-terminal H3 peptide as substrate at 100 nM by Michaelis-Menten plot analysis
[12] = target: T1, Lysine-specific histone demethylase 1A; test: Binding affinity to recombinant full-length His6-tagged LSD1 (unknown origin) assessed as Boltzmann melting temperature at 15 uM after 30 mins by differential scanning fluorimetry
[13] = target: T1, Lysine-specific histone demethylase 1A; test: Non-competitive inhibition of recombinant full-length His6-tagged LSD1 (unknown origin) using dimethylated K4N-terminal H3 peptide as substrate at 30 nM by Michaelis-Menten plot analysis
Cytochrome P450 2C19 = Cytochrome P450 2C19 (Homo sapiens, UniProt P33261); test: Inhibition of CYP2C19 (unknown origin); format: ADME
Sequence of Cytochrome P450 2C19 (P33261 whole entry): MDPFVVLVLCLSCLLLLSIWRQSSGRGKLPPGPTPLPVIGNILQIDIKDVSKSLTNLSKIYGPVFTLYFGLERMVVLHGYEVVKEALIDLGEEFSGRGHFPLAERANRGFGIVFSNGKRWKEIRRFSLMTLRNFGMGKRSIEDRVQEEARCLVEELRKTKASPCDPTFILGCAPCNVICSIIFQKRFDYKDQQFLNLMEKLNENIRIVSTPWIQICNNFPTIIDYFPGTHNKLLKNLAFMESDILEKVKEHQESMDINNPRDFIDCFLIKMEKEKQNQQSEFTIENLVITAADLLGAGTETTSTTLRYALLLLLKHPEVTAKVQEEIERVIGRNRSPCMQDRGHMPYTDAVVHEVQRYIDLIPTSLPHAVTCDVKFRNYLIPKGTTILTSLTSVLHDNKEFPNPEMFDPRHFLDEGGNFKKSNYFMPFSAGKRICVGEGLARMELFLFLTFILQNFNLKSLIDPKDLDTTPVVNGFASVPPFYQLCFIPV

[14] = target: T1, Lysine-specific histone demethylase 1A; test: Non-competitive inhibition of recombinant full-length His6-tagged LSD1 (unknown origin) using dimethylated K4N-terminal H3 peptide as substrate at 10 nM by Michaelis-Menten plot analysis
[15] = target: T1, Lysine-specific histone demethylase 1A; test: Binding affinity to recombinant full-length His6-tagged LSD1 (unknown origin) assessed as first derivative melting temperature at 15 uM after 30 mins by differential scanning fluorimetry
[16] = target: T1, Lysine-specific histone demethylase 1A; test: Binding affinity to recombinant full-length His6-tagged LSD1 (unknown origin) assessed as second derivative melting temperature at 15 uM after 30 mins by differential scanning fluorimetry (reference value: […] +/- 1.08 degC)
[17] = target: T1, Lysine-specific histone demethylase 1A; test: Reversible inhibition of full-length 6His-tagged LSD1 (unknown origin) at 10XIC50 after 1 hr relative to control
[18] = target: T1, Lysine-specific histone demethylase 1A; test: Inhibition of human recombinant LSD1 expressed in Escherichia coli BL21(DE3) using H3K4me2 as substrate by chemiluminescence assay

| Compound | IC50 [1] [µM] | IC50 (T47D) [µM] | other results |
| --- | --- | --- | --- |
| C/C(=N\NC(=O)c1ccccc1)c1c(O)cccc1O | > 3 | > 10 | – |
| C/C(=N/NC(=O)c1cccc(S(=O)(=O)N(C)C)c1)c1cc(Cl)ccc1O | – | 1.38 | – |
| C/C(=N\NC(=O)c1cccc(S(=O)(=O)N2CCOCC2)c1)c1ccnc(Cl)c1 | > 3 | > 10 | – |
| COc1ccc(Cl)cc1C(=O)NNC(=O)c1cc(S(=O)(=O)N2CCOCC2)ccc1F | > 3 | > 10 | – |
| O=C(NNC(=O)c1cc(S(=O)(=O)N2CCOCC2)ccc1F)c1cccc(Cl)c1 | > 3 | > 10 | – |
| COC(=O)c1cc(CN2CCN(C(=N)N)CC2)cc(C(=O)N2CCN(C(=O)c3ccc(C=N)cc3)CC2)c1 | – | – | IC50 [2]: 5.2 µM |
| C/C(=N\NC(=O)c1cccc(S(=O)(=O)N2CCOCC2)c1)c1cc(Cl)ccc1O | – | – | IC50 [3]: > 300 µM; inhibition [4]: 65.7%; IC50 (Cytochrome P450 3A4): 2.61 µM; Ki [5]: 0.0135 µM; IC50 (Cytochrome P450 2C9): 8.04 µM; IC50 [6]: > 10 µM; IC50 (Cytochrome P450 1A2): > 10 µM; Ki [7]: 0.0353 µM; IC50 [8]: > 10 µM; IC50 [9]: > 10 µM; IC50 (Cytochrome P450 2D6): > 10 µM; IC50 [10]: > 300 µM; Ki [11]: 0.0547 µM; Tm [12]: 44.6 °C; Ki [13]: 0.0352 µM; IC50 (Cytochrome P450 2C19): 9.76 µM; Ki [14]: 0.0319 µM; Tm [15]: 45.4 °C |
| CCN(CC)c1cccc(C(=O)N/N=C(\C)c2cccc(C)c2)c1 | > 3 | > 10 | – |
| C/C(=N\NC(=O)c1cccc(S(=O)(=O)N2CCOCC2)c1)c1cccc2ccccc12 | – | > 10 | – |
| C/C(=N/NC(=O)c1ccc(Cl)c(Br)c1)c1cc(Cl)ccc1O | > 3 | 0.565 | – |
| CC/C(=N/NC(=O)c1cccc(S(=O)(=O)N2CCOCC2)c1)c1cc(Cl)ccc1O | > 3 | 0.352 | – |
| C/C(=N\NC(=O)c1cccc(S(=O)(=O)N2CCOCC2)c1)c1cccc(Cl)c1F | > 3 | > 10 | – |
| C/C(=N\NC(=O)c1cccc(S(=O)(=O)N2CCOCC2)c1)c1cc(Cl)ccc1Cl | > 3 | 1.7 | inhibition [4]: inactive; Tm [16]: 46.7 °C; Tm [12]: 43.3 °C; inhibition [17]: inactive; Tm [15]: 40.8 °C |
| C/C(=N/NC(=O)c1cncc(Cl)c1)c1cc(Cl)ccc1O | > 3 | 0.616 | – |
| C/C(=N/NC(=O)c1cnc(Cl)c(Br)c1)c1cc(Cl)ccc1O | > 3 | 0.27 | – |
| C/C(=N/NC(=O)c1cccc(S(=O)(=O)N2CCOCC2)c1)c1cccnc1 | > 3 | – | – |
| CCNCCCNC/C=C\CNCCCNCC | – | – | IC50 [18]: 0.25 µM |
